# Values of other authors as cited in US20080255200A1, “SUBSTITUTED BENZIMIDAZOLES” (AUSPEX PHARMACEUTICALS, INC., priority 2007, published 2008).
# Target: gastric H^+, K^+-ATPase (Homo sapiens, UniProt P20648)
# Conditions: intragastric pH over 4, orally administered
# gastric H^+, K^+-ATPase, sequence (P20648 whole entry): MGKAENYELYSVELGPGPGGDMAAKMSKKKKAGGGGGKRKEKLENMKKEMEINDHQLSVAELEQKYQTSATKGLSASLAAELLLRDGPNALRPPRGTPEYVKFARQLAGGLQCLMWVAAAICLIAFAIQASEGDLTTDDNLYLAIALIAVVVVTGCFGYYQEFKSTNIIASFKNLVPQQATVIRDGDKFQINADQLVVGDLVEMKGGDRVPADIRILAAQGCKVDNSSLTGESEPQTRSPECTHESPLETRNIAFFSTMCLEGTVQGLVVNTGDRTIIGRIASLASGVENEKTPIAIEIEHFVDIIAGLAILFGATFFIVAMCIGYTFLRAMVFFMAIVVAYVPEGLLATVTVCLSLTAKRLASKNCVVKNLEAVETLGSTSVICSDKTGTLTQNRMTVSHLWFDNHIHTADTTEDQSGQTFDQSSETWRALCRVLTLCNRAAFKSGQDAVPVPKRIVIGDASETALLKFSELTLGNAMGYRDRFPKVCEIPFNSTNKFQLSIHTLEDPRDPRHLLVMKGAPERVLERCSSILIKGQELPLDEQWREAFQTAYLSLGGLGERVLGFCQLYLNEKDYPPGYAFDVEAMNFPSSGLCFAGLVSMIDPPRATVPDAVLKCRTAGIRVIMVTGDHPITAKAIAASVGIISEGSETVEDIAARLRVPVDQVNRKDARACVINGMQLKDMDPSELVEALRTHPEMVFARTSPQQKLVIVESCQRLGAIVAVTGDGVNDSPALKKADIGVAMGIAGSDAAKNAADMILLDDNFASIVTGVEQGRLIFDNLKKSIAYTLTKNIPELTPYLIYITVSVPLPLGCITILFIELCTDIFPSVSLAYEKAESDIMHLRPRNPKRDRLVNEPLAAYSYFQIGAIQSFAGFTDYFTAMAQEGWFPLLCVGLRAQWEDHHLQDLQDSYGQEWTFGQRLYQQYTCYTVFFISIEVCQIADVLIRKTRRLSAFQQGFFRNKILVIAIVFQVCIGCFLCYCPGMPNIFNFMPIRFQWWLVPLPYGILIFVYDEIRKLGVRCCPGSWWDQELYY
# gastric H^+, K^+-ATPase, sequence (P51164 whole entry partner): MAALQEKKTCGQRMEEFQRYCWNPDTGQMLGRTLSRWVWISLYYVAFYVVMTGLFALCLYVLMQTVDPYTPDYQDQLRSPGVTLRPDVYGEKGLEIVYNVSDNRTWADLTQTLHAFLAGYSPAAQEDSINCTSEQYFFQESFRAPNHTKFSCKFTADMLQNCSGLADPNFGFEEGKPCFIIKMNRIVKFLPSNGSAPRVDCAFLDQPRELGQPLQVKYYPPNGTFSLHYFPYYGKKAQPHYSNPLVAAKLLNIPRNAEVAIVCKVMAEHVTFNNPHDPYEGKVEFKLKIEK
compound,measurement,value
"COc1ccnc(C[S+]([O-])c2nc3cc(-n4cccc4)ccc3[nH]2)c1C (stereo not shown) [Ilaprazole, 2-(4-methoxy-3-methyl-pyridin-2-ylmethanesulfinyl)-5-pyrrol-1-yl-1H-benzoimidazole]",average time intragastric pH is increased to over 4,20.5 hours
